Experiment: Immumoenzymatic Assay: Solutions of the tested compounds in DMEM medium {DMEM) 1x; Source: Cellgro; Catalogue: 10-013-CV} were prepared immediately before use. Eleven serial three fold dilutions with variation of concentrations from 20 nM to 0.2 pM were prepared. In 4 hours after seeding, serial dilutions of the compounds were added to the cells (100 ul to each well). Final concentration of tested compounds was varied from 10 nM to 0.1 pM, and DMSO4 0.5%. If it was necessary, higher concentrations of the disclosed azoles were investigated. Each dilution of the compound was tested on two identical wells. Then the cells were incubated for three days at 37° C./5% CO2 and fixed by addition of acetone/methanol (1:1) mixture in amount of 250 ul/well. In 1 min the cells were washed 3 times with PBS (Phosphate Buffered Saline) solution. Then the cells were blocked by addition of 10% fetal calf serum in PBS solution in amount of 150 ul/well for 1 h at room temperature. Then, the cells were incubated with mouse monoclonal antibodies to cor-antigen HCV, don C7-50 (Source: Affinity BioReagents; Catalogue: MA1-080) (100 ul/well, working dilution 1:500 in 10% fetal calf serum in PBS solution) for 2 h at 37° C. The cells were washed 6 times with PBS/0.05% Tween 20 solution, then, they were incubated for 1 h with goat anti-mouse immunoglobulin antibodies (conjugated with horseradish peroxidase, 100 ul/well, working dilution 1:2500 in 10% fetal calf serum in PBS solution). The cells were washed 6 times with PBS/0.05% Tween 20 solution, once with PBS solution, after that substrate (1 tablet of o-phenylenediamine (oPD)+12 ml citrate/phosphate buffer+5 ul 30% H2O2) in amount of 100 ul/well was added. The plates were kept for 30 min in the dark at room temperature. The reaction was arrested by the addition of 2N H2SO4 in amount of 100 ul/well, and optical density (wavelength 490 nm) was measured by means of multiscan plate reader Victor3 V 1420 (Perkin Elmer). IC50 values (azole concentration, lowering the level of virus RNA-replicon on 50%) for every tested azole were calculated with the help of XLfit 4 program.
Format: cell-based
Settings: not given

SMILES	IC50 [pM]
COC(=O)N[C@H](C(=O)N1CCC[C@H]1c1nc(C#CC#Cc2ccc(-c3c[nH]c([C@@H]4CCCN4C(=O)[C@@H](NC(=O)OC)C(C)C)n3)cc2)c[nH]1)C(C)C	4

Same assay, conditions: 4 h

SMILES	IC50 [pM]
COC(=O)N[C@H](C(=O)N1CCC[C@H]1c1nc(C#CC#Cc2ccc3cc(-c4c[nH]c([C@@H]5CCCN5C(=O)[C@@H](NC(=O)OC)C(C)C)n4)ccc3c2)c[nH]1)C(C)C	3.6
COC(=O)N[C@@H](C(=O)N1CCC[C@@H]1c1ncc(C#CC#Cc2ccc3cc(-c4cnc([C@H]5CCCN5C(=O)[C@H](NC(=O)OC)C(C)C)[nH]4)ccc3c2)[nH]1)C(C)C	4.6
COC(=O)N[C@H](C(=O)N1CCC[C@@H]1c1nc(C#CC#Cc2ccc(-c3c[nH]c([C@@H]4CCCN4C(=O)[C@@H](NC(=O)OC)C(C)C)n3)cc2)c[nH]1)c1ccccc1	5.4
COC(=O)N[C@@H](C(=O)N1CCC[C@H]1c1nc(-c2ccc(C#CC#Cc3c[nH]c([C@H]4CCCN4C(=O)[C@H](NC(=O)OC)C(C)C)n3)cc2)c[nH]1)c1ccccc1	8.2
COC(=O)N[C@H](C(=O)N1CCC[C@H]1c1nc(-c2ccc(C#CC#Cc3c[nH]c([C@H]4CCCN4C(=O)[C@H](NC(=O)OC)C(C)C)n3)cc2)c[nH]1)c1ccccc1	1.8
